{"source": "patent US8722714B2", "about": "“Oxazolidine derivatives as NMDA antagonists” (The Honk Kong University of Science and Technology, priority 2008, dated 2014)", "key": {"[1]": {"tested_on": "NMDA receptor", "test": "Whole-cell patch clamp of NMDA-induced current in hippocampal neurons", "type": "cell-based, rat", "conditions": "for pooled NMDA current responses (normalized peak and plateau currents) / recovery of NMDA-induced current after compound was washed out: compound 500 uM co-applied with NMDA 200 uM; for pooled NMDA current responses (normalized peak and plateau currents): vs DMSO, n=6; for recovery of NMDA-induced current after compound was washed out: single hippocampal neuron", "procedure": "Hippocampal neurons were prepared from embryonic day 18 Sprague-Dawley rats. After the hippocampus had been removed from the brain, isolated cells were plated onto Poly d-Lysine (PDL) (P0899, Sigma)-coated 35 mm dishes (153066, NUNC) at a density of 3×10^5 cell per plate using Neurobasal Medium (NB) (21103-049, Gibco) with B27 supplement (17504-044, Gibco), penicillin/streptomycin (15140, Gibco) and 1 mM L-glutamine (25030, Gibco). The cell culture was incubated at 37° C. in a humidified atmosphere of 5% CO2 in air. Half of the medium was changed with NB, B27 and 50 μM L-glutamine every 2 to 3 days. On day 12 in vitro (12 DIV), whole-cell patch clamp was performed. The internal solution contained 120 mM cesium chloride, 20 mM tetraethylammonium chloride, 2 mM magnesium chloride, 1 mM calcium chloride and 10 mM HEPES (pH 7.2). The external solution contained 137 mM sodium chloride, 1 mM sodium bicarbonate, 0.34 mM sodium phosphate dibasic, 5.37 mM potassium chloride, 0.44 mM potassium phosphate monobasic, 2.5 mM HEPES (pH 7.4) and 22.2 mM glucose. Samples mixed with 50 μM NMDA (M3262, Sigma) were arranged in linear array of up to 8 individual controlled pipes (List Medical, Germany) which were connected to solution reservoirs. Memantine (10 μM, M9292, Sigma) was used as a positive control. Pipettes were fire-polished to produce a pipette resistance of 3-5 MΩ. Holding potential of patched cells was kept at −80 mV and currents were recorded using Axopatch-200B amplifier (Axon Instruments, USA). Tetrodotoxin (5 μM) and bicuculline methiodide (20 μM) (0109, Tocris) were present in the bath solution to block synaptic transmission mediated by voltage-gated sodium channels and […], respectively. Data was analyzed by pClamp9 software and percentage of inhibition on NMDA-induced current was represented in comparison to solvent control.\nThe NMDA receptor is a gated ion channel, which allows inflow of current during a nerve impulse. Antagonists to the receptor would prevent the inflow of current.\nIn FIG. 1A, hippocampal neurons from embryonic day 18 rats were isolated, trypsinized, plated onto 35-mm plates at a density of 3×10^4 cells/plate and cultured in Neurobasal medium (NB) supplemented with B27 nutrient. Rat hippocampal neurons (10-14 DIV) were treated with NMDA (50 μM) in the absence or presence of the compound LC-02 (10 μg/mL). Data is presented as % of NMDA-induced current. DMSO is the solvent control.\n(§1) In FIG. 1B, NMDA antagonistic effect of LC-02 on current responses of a single hippocampal neuron. NMDA (200 uM) was applied for 2.5 sec every 30 sec but these inter-response intervals have been deleted from the above figure for a better resolution of the kinetics of individual responses (blank space in trace). LC-02 (500 uM) was co-applied with NMDA.\nIn FIG. 1C, effects of LC-02 on pooled NMDA current responses. Normalized peak and plateau currents are shown in the absence (DMSO) and presence of LC-02.\nas §1, with “8, (a)” for “1B,”, “LC-06” for “LC-02”, “NMDA. […] (b) Effects of LC-06 on pooled NMDA current responses. Normalized peak and plateau currents are shown in the absence (DMSO) and presence of LC-06.” for “NMDA.”\nas §1, with “9, (a)” for “1B,”, “LC-24” for “LC-02”, “NMDA. […] (b) Effects of LC-24 on pooled NMDA current responses. Normalized peak and plateau currents are shown in the absence (DMSO) and presence of LC-24. […]” for “NMDA.”"}, "[2]": {"tested_on": "mice", "test": "Forced Swim Test (FST)", "type": "in vivo", "conditions": "100 mg/kg p.o., 7 times, last 4 min of 6-min swim", "from_the_text": "Outbred male I.C.R. mice of ˜3-4 weeks old weighing 20-22 g were used. The mice had free access to food (rodent chow #2053, 5g/mouse/day) and water. The cage floors were covered with wood shavings and the mice were handled once per week while the cages were cleaned. […] Number of mice per group was ˜10-15. To facilitate adaptation to novel surroundings, mice were transported to the testing area from the core animal facility at least one week prior to testing. All experimental sessions were conducted between 0900 and 1200 hours. Briefly, mice were put into a pyrex cylinder of 30 cm in height and 11.5 cm in diameter with water (10 cm) to a level that they would not be able to touch the bottom. Mice were put into the cylinder for twice, first day 15 min and second day 6 min. The duration of immobility (within the last 4 min in the 6-min time frame) of mice in FST were recorded using Etho-Vision® XT Mobility (Noldus software). The parameters to score the behavior of animals in the FST were fine-tuned by visual inspection. […]\nThe Forced Swim Test (FST) is a popular animal model for assessing depression. […] The time that the test animal spends in an immobile state in the second trial is measured (immobility time). […]\nThe task was then performed twice and the duration of time the mice spent in an immobile state during the second trial was measured. […]"}}}
{"smiles": "CC[C@H]1N[C@@H](CC(C)C)C(CC)(CC)O1", "note": "[LC-02]", "values": [{"measurement": "NMDA induced current in hippocampal neurons", "setting": "[1]; compound 10 μg/mL with NMDA 50 μM, rat hippocampal neurons 10-14 DIV", "result": "decreases in NMDA induced current"}, {"measurement": "pooled NMDA current responses (normalized peak and plateau currents)", "setting": "[1]", "result": "significantly inhibits NMDA-induced current"}, {"measurement": "recovery of NMDA-induced current after compound was washed out", "setting": "[1]", "result": "Partial recovery of NMDA-induced current"}]}
{"smiles": "CCCC1(CCC)O[C@@H](CC)N[C@H]1CC(C)C", "note": "[LC-06]", "values": [{"measurement": "duration of immobility (immobility time)", "setting": "[2]", "result": "Reduces the Duration of Immobility"}, {"measurement": "pooled NMDA current responses (normalized peak and plateau currents)", "setting": "[1]", "result": "significantly inhibits NMDA-induced current"}, {"measurement": "recovery of NMDA-induced current after compound was washed out", "setting": "[1]", "result": "Partial recovery of NMDA-induced current"}]}
{"smiles": "CC[C@H]1N[C@@H](Cc2ccccc2)C(CC)(CC)O1", "note": "[LC-24]", "values": [{"measurement": "pooled NMDA current responses (normalized peak and plateau currents)", "setting": "[1]", "result": "significantly inhibits NMDA-induced current"}, {"measurement": "recovery of NMDA-induced current after compound was washed out", "setting": "[1]", "result": "Partial recovery of NMDA-induced current"}]}
